According to patent US20110112100A1, “Hepatitis C Virus Inhibitors” (priority 2009, published 2011):
Structures can show the parent of a compound that is named as a salt. Where two headings read alike, the source gives them in different places.

Legend:
1b (con1) replicon cells = experiment: HCV 1b replicon inhibitory activity (luciferase, Britelite Plus); format: cell-based, hepatitis C virus; settings: read-out: IC50 value (95% Confidence Intervals) pM Replicon 1B assay
Summary of the method: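 1b (con1) luciferase replicon cells in DMEM + 10% FCS were exposed to 1-in-3 DMSO compound dilutions for 48 h at 37° C, 5% CO2. Luminescence was read 1-15 min after Britelite Plus addition; EC50 came from log concentration-response curves.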

1a-H77 replicon cells = experiment: HCV 1a replicon inhibitory activity (Renilla luciferase); format: cell-based, hepatitis C virus; settings: read-out: IC50 value (95% Confidence Intervals) pM Replicon 1A assay
Summary of the method: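 Replicon cells in DMEM + 10% FCS incubated 48 hours at 37° C., 5% CO2 with 1-in-3 serial dilutions of compound prepared in DMSO. Replication read as Renilla luciferase luminescence after lysis. EC50 taken from log concentration-response curves.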

[1] = geometric mean, 95% confidence intervals in parentheses, 48 hours, medium with 10% FCS

SMILES	IC50 (1b (con1) replicon cells; [1]) [pM]	IC50 (1a-H77 replicon cells; [1]) [pM]	IC50 (1b (con1) replicon cells; Hepatitis C virus, 48 h) [pM]	IC50 (1a-H77 replicon cells; Hepatitis C virus, 48 h) [pM]
CC[C@@H](NC(=O)OC)C(=O)N1CCC[C@H]1c1ncc(-c2ccc3nc(-c4ccc(-c5c[nH]c([C@@H]6CCCN6C(=O)[C@@H](NC(=O)OC)C(C)C)n5)cc4)cnc3c2)[nH]1 [Example 59, Methyl {(2S)-1-[(2S)-2-{4-[4-(6-{2-[(2S)-1-{(2R)-2-[(methoxycarbonyl)amino]butanoyl}pyrrolidin-2-yl]-1H-imidazol-5-yl}quinoxalin-2-yl)phenyl]-1H-imidazol-2-yl}pyrrolidin-1-yl]-3-methyl-1-oxobutan-2-yl} carbamate trifluoroacetic acid salt]	97.5	2390		
COC(=O)N[C@H](C(=O)N1CCC[C@H]1c1nc(-c2ccc(-c3cnc4cc(-c5cnc([C@@H]6CCCN6C(=O)[C@H](NC(=O)OC)C(C)C)[nH]5)ccc4n3)cc2)c[nH]1)C(C)C [Example 61, Methyl {(2S)-1-[(2S)-2-{4-[4-(6-{2-[(2S)-1-{(2R)-2-[(methoxycarbonyl)amino]-3-methylbutanoyl}pyrrolidin-2-yl]-1H-imidazol-5-yl}quinoxalin-2-yl)phenyl]-1H-imidazol-2-yl}pyrrolidin-1-yl]-3-methyl-1-oxobutan-2-yl}carbamate trifluoroacetic acid salt]			83.5	6400
COC(=O)N[C@H](C(=O)N1CCC[C@H]1c1nc(-c2ccc(-c3cnc4cc(-c5cnc([C@@H]6CCCN6C(=O)[C@@H](Cc6ccccc6)NC(=O)OC)[nH]5)ccc4n3)cc2)c[nH]1)C(C)C [Example 62, Methyl {(2R)-1-[(2S)-2-{5-[2-(4-{2-[(2S)-1-{(2S)-2-[(methoxycarbonyl)amino]-3-methylbutanoyl}pyrrolidin-2-yl]-1H-imidazol-4-yl}phenyl)quinoxalin-6-yl]-1H-imidazol-2-yl}pyrrolidin-1-yl]-1-oxo-3-phenylpropan-2-yl}carbamate trifluoroacetic acid salt]			44.1	2570
COC(=O)N[C@H](C(=O)N1CCC[C@H]1c1nc(-c2ccc(-c3cnc4cc(-c5cnc([C@@H]6CCCN6C(=O)[C@@H](COCc6ccccc6)NC(=O)OC)[nH]5)ccc4n3)cc2)c[nH]1)C(C)C [Example 63, Methyl {(2S)-1-[(2S)-2-{4-[4-(6-{2-[(2S)-1-{(2R)-3-(benzyloxy)-2-[(methoxycarbonyl)amino]propanoyl}pyrrolidin-2-yl]-1H-imidazol-5-yl}quinoxalin-2-yl)phenyl]-1H-imidazol-2-yl}pyrrolidin-1-yl]-3-methyl-1-oxobutan-2-yl}carbamate trifluoroacetic acid salt]			400	4770
COC(=O)N[C@@H](CO)C(=O)N1CCC[C@H]1c1ncc(-c2ccc3nc(-c4ccc(-c5c[nH]c([C@@H]6CCCN6C(=O)[C@@H](NC(=O)OC)C(C)C)n5)cc4)cnc3c2)[nH]1 [Example 64, Methyl {(2S)-1-[(2S)-2-{4-[4-(6-{2-[(2S)-1-{(2S)-3-hydroxy-2-[(methoxycarbonyl)amino]propanoyl}pyrrolidin-2-yl]-1H-imidazol-5-yl}quinoxalin-2-yl)phenyl]-1H-imidazol-2-yl}pyrrolidin-1-yl]-3-methyl-1-oxobutan-2-yl}carbamate trifluoroacetic acid salt]			42	44.9
COC(=O)NCC(=O)N1CCC[C@H]1c1ncc(-c2ccc3nc(-c4ccc(-c5c[nH]c([C@@H]6CCCN6C(=O)[C@@H](NC(=O)OC)C(C)C)n5)cc4)cnc3c2)[nH]1 [Example 65, Methyl {2-[(2S)-2-[5-[2-(4-{2-[(2S)-1-{(2S)-2-[(methoxycarbonyl)amino]-3-methylbutanoyl}pyrrolidin-2-yl]-1H-imidazol-4-yl}phenyl)quinoxalin-6-yl]-1H-imidazol-2-yl}pyrrolidin-1-yl]-2-oxoethyl)carbamate trifluoroacetic acid salt]			54.5	700
COC(=O)NC(C(=O)N1CCC[C@H]1c1ncc(-c2ccc3nc(-c4ccc(-c5c[nH]c([C@@H]6CCCN6C(=O)[C@@H](NC(=O)OC)C(C)C)n5)cc4)cnc3c2)[nH]1)C1CCCC1 (stereo partly drawn) [Example 66, Methyl {(2S)-1-[(2S)-2-{4-[4-(6-{2-[(2S)-1-{cyclopentyl[(methoxycarbonyl)amino]acetyl}pyrrolidin-2-yl]-1H-imidazol-5-yl}quinoxalin-2-yl)phenyl]-1H-imidazol-2-yl}pyrrolidin-1-yl]-3-methyl-1-oxobutan-2-yl} carbamate trifluoroacetic acid salt]	21.7	1720		
COC(=O)N[C@@H](CC(C)C)C(=O)N1CCC[C@H]1c1ncc(-c2ccc3nc(-c4ccc(-c5c[nH]c([C@@H]6CCCN6C(=O)[C@@H](NC(=O)OC)C(C)C)n5)cc4)cnc3c2)[nH]1 [Example 68, Methyl {(2S)-1-[(2S)-2-{5-[2-(4-{2-[(2S)-1-{(2S)-2-[(methoxycarobnyl)amino]-3-methylbutanoyl}pyrrolidin-2-yl]-1H-imidazol-4-yl}phenyl)quinoxalin-6-yl]-1H-imidazol-2-yl}pyrrolidin-1-yl]-4-methyl-1-oxopentan-2-yl}carbamate trifluoroacetic acid salt]	8.15	23.2		
COC(=O)N[C@H](C(=O)N1CCC[C@H]1c1nc(-c2ccc(-c3cnc4cc(-c5cnc([C@@H]6CCCN6C(=O)[C@H](NC(=O)OC)[C@@H](C)OC(C)(C)C)[nH]5)ccc4n3)cc2)c[nH]1)C(C)C [Example 75, Methyl {(2S)-1-[(2S)-2-{4-[4-(6-{2-[(2S)-1-{(2R,3R)-3-tert-butoxy-2-[(methoxycarbonyl)amino]butanoyl}pyrrolidin-2-yl]-1H-imidazol-5-yl}quinoxalin-2-yl)phenyl]-1H-imidazol-2-yl}pyrrolidin-1-yl]-3-methyl-1-oxobutan-2-yl}carbamate trifluoroacetic acid salt]			143	4190
COC(=O)N[C@H](C(=O)N1CCC[C@H]1c1nc(-c2ccc(-c3cnc4cc(-c5cnc([C@@H]6CCCN6C(=O)[C@@H](COC(C)(C)C)NC(=O)OC)[nH]5)ccc4n3)cc2)c[nH]1)C(C)C [Example 76, Methyl {(2S)-1-[(2S)-2-{4-[4-(6-{2-[(2S)-1-{(2R)-3-tert-butoxy-2-[(methoxycarbonyl)amino]propanoyl}pyrrolidin-2-yl]-1H-imidazol-5-yl]quinoxalin-2-yl)phenyl]-1H-imidazol-2-yl}pyrrolidin-1-yl]-3-methyl-1-oxobutan-2-yl}carbamate trifluoroacetic acid salt]			58.8	157
CCC[C@@H](NC(=O)OC)C(=O)N1CCC[C@H]1c1ncc(-c2ccc3nc(-c4ccc(-c5c[nH]c([C@@H]6CCCN6C(=O)[C@@H](NC(=O)OC)C(C)C)n5)cc4)cnc3c2)[nH]1 [Example 77, Methyl {(2R)-1-[(2S)-2-{5-[2-(4-{2-[(2S)-1-{(2S)-2-[(methoxycarbonyl)amino]-3-methylbutanoyl}pyrrolidin-2-yl]-1H-imidazol-4-yl}phenyl)quinoxalin-6-yl]-1H-imidazol-2-yl}pyrrolidin-1-yl]-1-oxopentan-2-yl}carbamate trifluoroacetic acid salt]			31.4	186
